Assay results from article PMC11277004, “Di- and Triselenoesters—Promising Drug Candidates for the Future Therapy of Triple-Negative Breast Cancer” (International Journal of Molecular Sciences, 2024).
Where two headings read alike, the source gives them in different places.

How the values were obtained:
Assay type in all cases: cell-based, human
[1] = system: MDA-MB-231 triple-negative breast cancer cells; test: MTT cytotoxicity test, MDA-MB-231; details: MDA-MB-231, 24 h incubation, read-out: IC50, cell viability (MTT)
Description: MCF-7 and MDA-MB-231 human breast cancer cell lines, as well as MCF-10A normal human breast epithelial cells, were acquired from the American Type Culture Collection (ATCC, Manassas, VA, USA). The characteristics of the breast cancer cell lines used in this study are compared in Table 1. MCF-7 and MDA-MB-231 cells were cultured in Dulbecco’s modified Eagle’s medium (Gibco, San Diego, CA, USA), while MCF-10A cells were cultured in the mammary epithelial cell growth medium with the following supplements: BPE, hEGF, insulin, hydrocortisone, GA-1000 (Lonza, Basel, Switzerland). All media were complemented by 10% of fetal bovine serum (FBS) and 1% of the following antibiotics: penicillin and streptomycin (both Gibco, San Diego, CA, USA). The cells were maintained in an incubator that provides the optimal growth conditions for the cell culture: 5% CO2, 37 °C, and humidity in a range of 90–95%. The cells were cultured in 100 mm plates (Sarstedt, Newton, NC, USA). Subsequently, after obtaining a subconfluent cell culture, the cells were detached with 0.05% trypsin with 0.02% EDTA (Gibco, San Diego, CA, USA). […] In this study, cells that obtained 80% confluence were used. The MTT assay was used to determine the cytotoxic effects of the compounds in the study on MCF-7 and MDA-MB-231 breast cancer cells as well as MCF-10A normal human breast epithelial cells based on Carmichael’s method. […] After this time, the medium was removed, and the cell monolayer was washed with warm phosphate-buffered saline (PBS) without calcium and magnesium. In the next step, PBS and MTT solution in PBS (5 mg/mL) were added to each well to obtain a final MTT concentration of 0.5 mg/mL, and then the cells were incubated for 4 h (37 °C temperature, 5% CO2, 90–95% humidity). After the incubation period, the contents of each well were removed, 1 mL of DMSO was added to dissolve the formazan, and then the plate with the added DMSO was mixed for 5–10 min on a microplate shaker (Boeco, Hamburg, Germany). Then, 10 µL of Sorensen’s glycine buffer (a solution of 0.1 M glycine and 0.1 M sodium chloride adjusted to pH 10.5 with 0.1 M sodium hydroxide) was added. The absorbance of the obtained solution was immediately measured at a wavelength of λ = 570 nm using a Thermo Scientific Evolution 201 UV–VIS spectrophotometer (Thermo Fisher Scientific, Waltham, MA, USA). The absorbance result obtained in the control cells (without the addition of the tested compounds) was taken as 100%, while the viability of cells incubated with the tested compounds was presented as a percentage of the control value.

Bcl-2 = Bcl-2 protein level by flow cytometry, MDA-MB-231; details: 24 h
Description: (§1) For this purpose, Akt (PE), Bax (FITC), Bcl-2 (Alexa Fluor® 647), LC3A/B (Alexa Fluor® 488), and p53 (Alexa Fluor® 488) antibodies conjugated to different fluorochromes (all from Cell Signaling Technology, Beverly, MA, USA) were utilized. Each assay was performed according to the manufacturer's protocol available on their website. After incubation with the tested compounds, the cells were centrifuged, resuspended in 4% formaldehyde (100 μL/1 × 10^6 cells), and fixed for 15 min at room temperature. Afterward, to remove the formaldehyde, the cells were washed by centrifugation with excess PBS and the permeabilization step was triggered. For this purpose, ice-cold 90% methanol was added to the pre-chilled cell pellet, gently vortexed, and incubated for 1 h on ice. Later, the cells were washed by centrifugation with excess PBS again, resuspended in 100 μL of 1:100 diluted primary antibody (stain buffer was used for dilution), and incubated for 1 h at room temperature in the dark. After incubation, the cells were washed, resuspended in 300 μL PBS, and immediately tested with a flow cytometer (BD FACSCanto II, BD Biosciences Systems, San Jose, CA, USA; 10,000 events measured). The obtained results were analyzed using the FACSDiva 6.0 software (BD Biosciences Systems, San Jose, CA, USA). In the case of the p53 protein, the MRF values were obtained first during the flow cytometer readout utilizing FACSDiva software and later analyzed using FCS Express 7 (De Novo Software, Pasadena, CA, USA). The equipment calibration was performed using the BD Cytometer Setup and Tracking Beads (BD Biosciences, San Diego, CA, USA).

[2] = system: MCF-7 breast cancer cells; test: DNA biosynthesis assay ([3H]-thymidine incorporation), MCF-7; details: read-out: IC50, DNA biosynthesis
Description: The study of the antiproliferative properties (intensity of [^3H]-thymidine incorporation into cell DNA) of the tested derivatives against tested cell lines (MCF-7, MDA-MB-231, MCF-10A) was performed after 24 h incubation with varied concentrations of the tested compounds in the medium (0.5–5 µM) in 6-well plates (baseline seeding density: 5 × 10^5 cells/well). After 24 h the medium was removed, the cells were washed with PBS (Corning, Kennebunk, ME, USA), and a fresh medium was added. After that, the cells were treated with 0.5 µCi of tritium-labeled thymidine (specific activity 7 Ci/mmol) by incubating them with this compound for 4 h under the same conditions as the cell culture. In the first step, the medium was removed, and the cell monolayer was washed twice with 1 mL of 0.05 M Tris-HCl buffer pH 7.4 containing 0.11 M NaCl. To denature proteins, the cells were washed twice with 1 mL of 5% trichloroacetic acid (TCA) solution. Finally, cell lysis was performed by adding 1 mL of 0.1 M sodium hydroxide (NaOH) solution containing 1% sodium dodecyl sulfate (SDS) to each well. After five minutes, the obtained cell lysates were transferred to scintillation vials with 2 mL of scintillation fluid added to them beforehand. Radioactivity was measured using the Scintillation Counter 1900 TR, TRI-CARB (Packard, Perkin Elmer, Inc., San Jose, CA, USA). The intensity of DNA biosynthesis in the analyzed cells was expressed in terms of dpm/well. The result of the radioactivity measurement in the control cells (without the addition of tested compounds) was taken as 100%, while the values of cells incubated with the tested compounds were presented as a percentage of the control value.

LC3A/B = LC3A/B protein level by flow cytometry, MCF-7; details: 24 h
Description: as §1

Row | Compound | IC50 [1] [nM] | Bcl-2 negative cells ± SD (Bcl-2; MDA-MB-231, 0.5 μM) [%] | Bcl-2 negative cells ± SD (Bcl-2; MDA-MB-231, 1 μM) [%] | IC50 ([2]; MCF-7, 24 h incubation) [nM] | LC3A/B positive cells ± SD (LC3A/B; MCF-7, 0.5 μM) [%] | LC3A/B positive cells ± SD (LC3A/B; MCF-7, 1 μM) [%] | IC50 ([1]; Homo sapiens) [nM] | IC50 ([2]; Homo sapiens, MCF7, 24 h) [nM]
1 | N.N.[Cl][Pt][Cl] [Cisplatin, reference compound] | > 5000 | 4.3 ± 0.3 | 4.5 ± 0.6 | > 5000 | 3.3 ± 0.5 | 3.5 ± 0.4 | – | –
2 | CC(=O)C[Se]C(=O)c1ccc(C(=O)[Se]CC(C)=O)cc1 [EDAG-1, Se,Se-bis(2-oxopropyl) benzene-1,4-bis(carboselenoate)] | – | 36.1 ± 1.6 | 68.9 ± 5.7 | – | 9.9 ± 0.9 | 12.0 ± 1.4 | 710 ± 60 | 790 ± 20
3 | CC(=O)C[Se]C(=O)c1cc(C(=O)[Se]CC(C)=O)cc(C(=O)[Se]CC(C)=O)c1 [EDAG-8, Se,Se,Se-tris-(2-oxopropyl) benzene-1,3,5-tris-(carboxyselenoate)] | – | 51.7 ± 3.5 | 74.9 ± 2.7 | – | 11.9 ± 1.1 | 17.4 ± 1.3 | 530 ± 30 | 960 ± 70
